In the NIST ThermoML archive (doi:10.1021/je0340755):
Numbers after ± are expanded uncertainties.

Assay: xn = mol fraction of the nth substance listed
Conditions: 101.3 kPa, Liquid; for viscosity: Capillary tube (Ostwald / Ubbelohde) method

CCC(O)CO (stereo not given) [1,2-butanediol] + O
Conditions	mass density [kg/m3]	speed of sound [m/s]	viscosity [mPa·s]
298.15 K, x2 = 0.0471	999.56 ± 0.35	1455.6 ± 12	54.4 ± 0.17
298.15 K, x2 = 0.1478	1001.36 ± 0.34	1480.8 ± 12	47.22 ± 0.22
298.15 K, x2 = 0.2481	1003.09 ± 0.33	1497.6 ± 12	39.78 ± 0.18
298.15 K, x2 = 0.3491	1005.12 ± 0.32	1517.2 ± 12	32.56 ± 0.15
298.15 K, x2 = 0.443	1007.55 ± 0.32	1545.9 ± 13	26.42 ± 0.13
298.15 K, x2 = 0.4971	1009.14 ± 0.32	1564.2 ± 13	23.17 ± 0.12
298.15 K, x2 = 0.5552	1010.88 ± 0.32	1581.1 ± 13	19.92 ± 0.1
298.15 K, x2 = 0.6494	1013.49 ± 0.31	1600.3 ± 13	15.11 ± 0.09
298.15 K, x2 = 0.7491	1015.73 ± 0.31	1622.2 ± 13	10.48 ± 0.078
298.15 K, x2 = 0.8547	1016.98 ± 0.31	1666.2 ± 13	5.959 ± 0.069
298.15 K, x2 = 0.9081	1015.65 ± 0.31	1670.6 ± 14	3.869 ± 0.066
298.15 K, x2 = 0.9144	1015.26 ± 0.3	1667.8 ± 13	3.635 ± 0.066
298.15 K, x2 = 0.9255	1014.39 ± 0.3	1660.6 ± 13	3.232 ± 0.065
298.15 K, x2 = 0.9353	1013.39 ± 0.3	1651 ± 13	2.885 ± 0.065
298.15 K, x2 = 0.9543	1010.65 ± 0.29	1623.1 ± 13	2.241 ± 0.064
298.15 K, x2 = 0.9562	1010.3 ± 0.29	1619.5 ± 13	2.179 ± 0.064
298.15 K, x2 = 0.9598	1009.61 ± 0.29	1612.5 ± 13	2.063 ± 0.064
298.15 K, x2 = 0.97	1007.33 ± 0.28	1589.6 ± 13	1.743 ± 0.064
298.15 K, x2 = 0.9806	1004.38 ± 0.27	1561 ± 13	1.425 ± 0.064
298.15 K, x2 = 0.9902	1001.1 ± 0.26	1531.6 ± 13	1.152 ± 0.063
298.15 K, x2 = 0.9923	1000.29 ± 0.26	1524.8 ± 12	1.095 ± 0.063
298.15 K, x2 = 0.9956	998.96 ± 0.26	1513.5 ± 12	1.006 ± 0.063
308.15 K, x2 = 0.0471	992.15 ± 0.36	1426 ± 12	28.67 ± 0.14
308.15 K, x2 = 0.1478	993.92 ± 0.35	1443.9 ± 12	25.18 ± 0.13
308.15 K, x2 = 0.2481	995.73 ± 0.33	1452.8 ± 12	21.61 ± 0.11
308.15 K, x2 = 0.3491	997.81 ± 0.31	1474 ± 12	18.1 ± 0.1
308.15 K, x2 = 0.443	1000.17 ± 0.3	1496.6 ± 12	15.04 ± 0.091
308.15 K, x2 = 0.4971	1001.68 ± 0.3	1508.1 ± 12	13.39 ± 0.086
308.15 K, x2 = 0.5552	1003.37 ± 0.29	1519.5 ± 12	11.69 ± 0.081
308.15 K, x2 = 0.6494	1006.11 ± 0.29	1542.9 ± 13	9.091 ± 0.075
308.15 K, x2 = 0.7491	1008.77 ± 0.29	1585.6 ± 13	6.504 ± 0.07
308.15 K, x2 = 0.8547	1010.49 ± 0.29	1640.7 ± 13	3.9 ± 0.066
308.15 K, x2 = 0.9081	1009.43 ± 0.29	1647.5 ± 13	2.651 ± 0.065
308.15 K, x2 = 0.9144	1009.1 ± 0.28	1645.9 ± 13	2.509 ± 0.064
308.15 K, x2 = 0.9255	1008.36 ± 0.28	1641.4 ± 13	2.26 ± 0.064
308.15 K, x2 = 0.9353	1007.51 ± 0.28	1635.3 ± 13	2.044 ± 0.064
308.15 K, x2 = 0.9543	1005.2 ± 0.27	1617.1 ± 13	1.635 ± 0.064
308.15 K, x2 = 0.9562	1004.91 ± 0.27	1614.7 ± 13	1.594 ± 0.064
308.15 K, x2 = 0.9598	1004.33 ± 0.27	1610 ± 13	1.519 ± 0.064
308.15 K, x2 = 0.97	1002.44 ± 0.26	1594.4 ± 13	1.308 ± 0.063
308.15 K, x2 = 0.9806	1000 ± 0.26	1574.5 ± 13	1.094 ± 0.063
308.15 K, x2 = 0.9902	997.32 ± 0.26	1552.8 ± 13	0.906 ± 0.063
308.15 K, x2 = 0.9923	996.67 ± 0.27	1547.5 ± 13	0.865 ± 0.063
308.15 K, x2 = 0.9956	995.58 ± 0.27	1538.9 ± 13	0.802 ± 0.063
318.15 K, x2 = 0.0471	984.63 ± 0.38	1396.5 ± 12	16.54 ± 0.1
318.15 K, x2 = 0.1478	986.4 ± 0.36	1415 ± 12	14.53 ± 0.092
318.15 K, x2 = 0.2481	988.13 ± 0.35	1422.4 ± 12	12.47 ± 0.085
318.15 K, x2 = 0.3491	990.15 ± 0.33	1441.3 ± 12	10.46 ± 0.079
318.15 K, x2 = 0.443	992.53 ± 0.32	1462.7 ± 12	8.706 ± 0.075
318.15 K, x2 = 0.4971	994.08 ± 0.31	1474.1 ± 12	7.758 ± 0.073
318.15 K, x2 = 0.5552	995.8 ± 0.3	1485.9 ± 12	6.789 ± 0.071
318.15 K, x2 = 0.6494	998.48 ± 0.28	1510 ± 12	5.314 ± 0.068
318.15 K, x2 = 0.7491	1001.03 ± 0.27	1553.8 ± 13	3.848 ± 0.066
318.15 K, x2 = 0.8547	1003.2 ± 0.27	1614.7 ± 13	2.378 ± 0.064
318.15 K, x2 = 0.9081	1003 ± 0.27	1630.6 ± 13	1.675 ± 0.064
318.15 K, x2 = 0.9144	1002.81 ± 0.27	1630.5 ± 13	1.595 ± 0.064
318.15 K, x2 = 0.9255	1002.34 ± 0.26	1629 ± 13	1.455 ± 0.064
318.15 K, x2 = 0.9353	1001.75 ± 0.26	1626 ± 13	1.334 ± 0.063
318.15 K, x2 = 0.9543	999.98 ± 0.26	1614.7 ± 13	1.105 ± 0.064
318.15 K, x2 = 0.9562	999.74 ± 0.26	1613.2 ± 13	1.083 ± 0.063
318.15 K, x2 = 0.9598	999.27 ± 0.26	1610 ± 13	1.041 ± 0.063
318.15 K, x2 = 0.97	997.69 ± 0.26	1599 ± 13	0.923 ± 0.063
318.15 K, x2 = 0.9806	995.59 ± 0.27	1584.6 ± 13	0.804 ± 0.063
318.15 K, x2 = 0.9902	993.21 ± 0.27	1568.4 ± 13	0.699 ± 0.063
318.15 K, x2 = 0.9923	992.62 ± 0.28	1564.4 ± 13	0.677 ± 0.063
318.15 K, x2 = 0.9956	991.63 ± 0.28	1557.9 ± 13	0.642 ± 0.063
328.15 K, x2 = 0.0471	976.76 ± 0.4	1381.6 ± 12	10.36 ± 0.081
328.15 K, x2 = 0.1478	978.45 ± 0.38	1392.6 ± 12	9.126 ± 0.077
328.15 K, x2 = 0.2481	980.12 ± 0.37	1404 ± 12	7.863 ± 0.074
328.15 K, x2 = 0.3491	982.09 ± 0.35	1421.6 ± 12	6.626 ± 0.071
328.15 K, x2 = 0.443	984.39 ± 0.34	1440 ± 12	5.547 ± 0.069
328.15 K, x2 = 0.4971	985.9 ± 0.33	1450.7 ± 12	4.962 ± 0.068
328.15 K, x2 = 0.5552	987.59 ± 0.32	1464.3 ± 12	4.363 ± 0.067
328.15 K, x2 = 0.6494	990.29 ± 0.3	1490.7 ± 12	3.447 ± 0.066
328.15 K, x2 = 0.7491	993 ± 0.29	1532.6 ± 13	2.533 ± 0.064
328.15 K, x2 = 0.8547	995.64 ± 0.27	1592.7 ± 13	1.615 ± 0.064
328.15 K, x2 = 0.9081	995.96 ± 0.27	1611.9 ± 13	1.177 ± 0.063
328.15 K, x2 = 0.9144	995.86 ± 0.27	1612.7 ± 13	1.127 ± 0.063
328.15 K, x2 = 0.9255	995.56 ± 0.27	1612.9 ± 13	1.04 ± 0.063
328.15 K, x2 = 0.9353	995.14 ± 0.27	1611.8 ± 13	0.964 ± 0.063
328.15 K, x2 = 0.9543	993.79 ± 0.27	1604.2 ± 13	0.821 ± 0.063
328.15 K, x2 = 0.9562	993.61 ± 0.27	1603.4 ± 13	0.807 ± 0.063
328.15 K, x2 = 0.9598	993.23 ± 0.28	1601.5 ± 13	0.781 ± 0.063
328.15 K, x2 = 0.97	991.96 ± 0.28	1594 ± 13	0.707 ± 0.063
328.15 K, x2 = 0.9806	990.23 ± 0.28	1583.2 ± 13	0.633 ± 0.063
328.15 K, x2 = 0.9902	988.23 ± 0.29	1571.2 ± 13	0.568 ± 0.063
328.15 K, x2 = 0.9923	987.73 ± 0.29	1568.9 ± 13	0.554 ± 0.063
328.15 K, x2 = 0.9956	986.9 ± 0.3	1563.4 ± 13	0.532 ± 0.063
338.15 K, x2 = 0.0471	968.75 ± 0.42	1365.8 ± 12	6.896 ± 0.072
338.15 K, x2 = 0.1478	970.35 ± 0.4	1376.1 ± 12	6.061 ± 0.07
338.15 K, x2 = 0.2481	971.96 ± 0.39	1387.3 ± 12	5.201 ± 0.069
338.15 K, x2 = 0.3491	973.85 ± 0.37	1402.7 ± 12	4.361 ± 0.067
338.15 K, x2 = 0.443	976.07 ± 0.36	1420.1 ± 12	3.638 ± 0.066
338.15 K, x2 = 0.4971	977.53 ± 0.35	1430.2 ± 12	3.251 ± 0.065
338.15 K, x2 = 0.5552	979.18 ± 0.34	1443.6 ± 12	2.859 ± 0.065
338.15 K, x2 = 0.6494	981.87 ± 0.33	1468.5 ± 12	2.268 ± 0.064
338.15 K, x2 = 0.7491	984.71 ± 0.31	1507.6 ± 12	1.689 ± 0.064
338.15 K, x2 = 0.8547	987.72 ± 0.3	1565.4 ± 13	1.114 ± 0.063
338.15 K, x2 = 0.9081	988.49 ± 0.29	1587.3 ± 13	0.843 ± 0.063
338.15 K, x2 = 0.9144	988.47 ± 0.29	1588.5 ± 13	0.812 ± 0.063
338.15 K, x2 = 0.9255	988.32 ± 0.29	1590.4 ± 13	0.759 ± 0.063
338.15 K, x2 = 0.9353	988.06 ± 0.29	1591 ± 13	0.713 ± 0.063
338.15 K, x2 = 0.9543	987.1 ± 0.29	1588.9 ± 13	0.626 ± 0.063
338.15 K, x2 = 0.9562	986.96 ± 0.3	1588.1 ± 13	0.618 ± 0.063
338.15 K, x2 = 0.9598	986.68 ± 0.3	1587.6 ± 13	0.602 ± 0.063
338.15 K, x2 = 0.97	985.68 ± 0.3	1583.6 ± 13	0.558 ± 0.063
338.15 K, x2 = 0.9806	984.29 ± 0.3	1577.1 ± 13	0.514 ± 0.063
338.15 K, x2 = 0.9902	982.66 ± 0.31	1570.2 ± 13	0.476 ± 0.063
338.15 K, x2 = 0.9923	982.25 ± 0.31	1568 ± 13	0.467 ± 0.063
338.15 K, x2 = 0.9956	981.55 ± 0.31	1564.9 ± 13	0.455 ± 0.063
